The test system of the test is HL-60 cells. As to the kind of experiment: Activated caspase 3 by flow cytometry (PE Active Caspase-3 Apoptosis kit). The class given is cell-based. Conditions: camptothecin 30µM, non treated control 7.4 %. The procedure: HL-60 cells were incubated with the various treatments. […] (It is well known that caspase 3 is the main effector of apoptosis mediated by caspase activation).
(In general: A flow cytometer gives signals particle by particle.)

Regarding `CC[C@@]1(O)C(=O)OCc2c1cc1n(c2=O)Cc2cc3ccccc3nc2-1` [camptothecin], the “cells positive for activated caspase 3” value was found to be 32.4%.

The record behind these values is patent EP2457572A1, “Use of atomic quantum clusters (aqcs) in the prevention of cell proliferative disorders, viral infections and autoimmune diseases” (Universidade De Santiago De Compostela, priority 2010, dated 2012).
